Laboratory results reported in article PMC6430112 (Xenobiotica; the fate of foreign compounds in biological …, 2018).
Values joined by “and” are separate entries in the source; they are usually repeats but may differ in a detail not shown here. Identical values can stand only once.

Assays:
rat liver microsomes = settings: ref Kagawa et al. (2004); cited from earlier work
CYP1A1 = target: T1, CYP1A1 (Homo sapiens, UniProt P04798); test: Oxidation by purified CYP1A1 in reconstituted monooxygenase system, LC-MS/MS; type: in vitro ADME; settings: substrate flavanone
T1 sequence (P04798 1-512): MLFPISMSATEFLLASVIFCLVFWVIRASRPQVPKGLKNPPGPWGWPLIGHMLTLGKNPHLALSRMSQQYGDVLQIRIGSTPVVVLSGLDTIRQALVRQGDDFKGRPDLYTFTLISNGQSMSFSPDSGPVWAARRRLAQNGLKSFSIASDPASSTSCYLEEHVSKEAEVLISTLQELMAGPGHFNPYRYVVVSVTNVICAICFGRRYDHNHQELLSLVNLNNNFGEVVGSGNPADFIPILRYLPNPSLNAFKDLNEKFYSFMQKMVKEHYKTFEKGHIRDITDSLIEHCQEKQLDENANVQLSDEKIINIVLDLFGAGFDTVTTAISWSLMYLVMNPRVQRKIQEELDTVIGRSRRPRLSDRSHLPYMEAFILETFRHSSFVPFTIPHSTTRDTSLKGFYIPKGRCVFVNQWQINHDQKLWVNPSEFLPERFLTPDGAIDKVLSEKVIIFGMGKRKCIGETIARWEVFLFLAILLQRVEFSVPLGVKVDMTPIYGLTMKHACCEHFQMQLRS

CYP1A2 = target: T2, CYP1A2 (Homo sapiens, UniProt P05177); test: Oxidation by purified CYP1A2 in reconstituted monooxygenase system, LC-MS/MS; type: in vitro ADME; settings: substrate flavanone
T2 sequence (P05177 1-516): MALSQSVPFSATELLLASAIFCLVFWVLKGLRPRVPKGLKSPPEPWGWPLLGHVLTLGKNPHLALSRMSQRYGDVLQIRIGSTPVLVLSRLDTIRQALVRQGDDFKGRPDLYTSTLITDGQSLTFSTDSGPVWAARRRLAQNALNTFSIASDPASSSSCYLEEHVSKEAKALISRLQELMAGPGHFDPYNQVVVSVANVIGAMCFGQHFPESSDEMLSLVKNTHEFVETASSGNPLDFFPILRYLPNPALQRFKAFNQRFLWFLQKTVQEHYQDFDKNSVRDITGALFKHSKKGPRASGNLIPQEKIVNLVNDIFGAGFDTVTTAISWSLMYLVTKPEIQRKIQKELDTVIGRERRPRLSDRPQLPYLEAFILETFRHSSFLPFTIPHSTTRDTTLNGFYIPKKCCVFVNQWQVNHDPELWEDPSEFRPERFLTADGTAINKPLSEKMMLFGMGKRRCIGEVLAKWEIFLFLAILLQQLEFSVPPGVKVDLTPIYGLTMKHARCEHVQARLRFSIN

CYP2A6 = target: T3, CYP2A6 (Homo sapiens, UniProt P11509); test: Oxidation by purified CYP2A6 in reconstituted monooxygenase system, LC-MS/MS; type: in vitro ADME; settings: substrate flavanone
T3 sequence (P11509 1-494): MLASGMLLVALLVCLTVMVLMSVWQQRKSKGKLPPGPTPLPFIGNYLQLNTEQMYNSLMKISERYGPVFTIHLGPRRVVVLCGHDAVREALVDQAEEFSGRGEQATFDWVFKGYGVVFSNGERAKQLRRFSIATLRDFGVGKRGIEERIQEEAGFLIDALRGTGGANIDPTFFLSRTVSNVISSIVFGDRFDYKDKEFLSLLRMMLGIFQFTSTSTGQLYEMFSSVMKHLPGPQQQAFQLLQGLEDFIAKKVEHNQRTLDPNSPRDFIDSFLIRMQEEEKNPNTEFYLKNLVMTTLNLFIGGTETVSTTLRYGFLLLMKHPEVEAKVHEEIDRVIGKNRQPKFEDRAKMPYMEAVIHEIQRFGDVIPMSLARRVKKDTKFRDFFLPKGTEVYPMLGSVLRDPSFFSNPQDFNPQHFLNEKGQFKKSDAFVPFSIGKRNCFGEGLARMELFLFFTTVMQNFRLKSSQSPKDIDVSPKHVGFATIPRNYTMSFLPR

CYP2C9 = CYP2C9 (Homo sapiens, UniProt P11712); test: Oxidation by purified CYP2C9 in reconstituted monooxygenase system, LC-MS/MS; type: in vitro ADME; settings: substrate flavanone
Chain of CYP2C9 (P11712 whole entry): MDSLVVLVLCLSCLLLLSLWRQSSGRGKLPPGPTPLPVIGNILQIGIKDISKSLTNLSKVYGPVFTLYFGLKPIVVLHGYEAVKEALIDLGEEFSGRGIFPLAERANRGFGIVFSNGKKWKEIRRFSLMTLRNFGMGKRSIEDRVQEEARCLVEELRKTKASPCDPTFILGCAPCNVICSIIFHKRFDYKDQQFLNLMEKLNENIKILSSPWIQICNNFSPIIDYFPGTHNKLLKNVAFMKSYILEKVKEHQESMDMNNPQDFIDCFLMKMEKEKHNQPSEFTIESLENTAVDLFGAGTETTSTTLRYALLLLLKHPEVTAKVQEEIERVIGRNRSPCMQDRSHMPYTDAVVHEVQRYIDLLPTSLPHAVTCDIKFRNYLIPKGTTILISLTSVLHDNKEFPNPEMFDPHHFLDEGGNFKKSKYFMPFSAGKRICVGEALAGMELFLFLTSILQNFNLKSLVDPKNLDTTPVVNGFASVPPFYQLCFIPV

CYP3A4 = CYP3A4 (Homo sapiens, UniProt P08684); test: Oxidation by purified CYP3A4 in reconstituted monooxygenase system, LC-MS/MS; type: in vitro ADME; settings: substrate flavanone
Chain of CYP3A4 (P08684 whole entry): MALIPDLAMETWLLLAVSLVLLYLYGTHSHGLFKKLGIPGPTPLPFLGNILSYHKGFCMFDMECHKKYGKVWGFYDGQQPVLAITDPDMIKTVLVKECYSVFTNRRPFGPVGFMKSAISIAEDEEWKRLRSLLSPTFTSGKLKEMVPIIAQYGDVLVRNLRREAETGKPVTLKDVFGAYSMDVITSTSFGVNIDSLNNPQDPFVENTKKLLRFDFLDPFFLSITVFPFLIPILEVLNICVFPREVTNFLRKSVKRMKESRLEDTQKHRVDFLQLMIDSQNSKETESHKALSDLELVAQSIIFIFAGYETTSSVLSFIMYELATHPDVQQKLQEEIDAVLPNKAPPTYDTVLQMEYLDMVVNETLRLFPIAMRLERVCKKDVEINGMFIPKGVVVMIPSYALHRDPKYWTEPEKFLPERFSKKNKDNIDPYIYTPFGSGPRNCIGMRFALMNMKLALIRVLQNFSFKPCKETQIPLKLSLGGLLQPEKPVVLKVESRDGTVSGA

wild-type CYP2A6 = settings: substrate flavanone, ref Uno et al. (2013; 2015); cited from earlier work
CYP2A13 = target: T4, CYP2A13 (Homo sapiens, UniProt Q16696); test: Oxidation by purified CYP2A13 in reconstituted monooxygenase system, LC-MS/MS; type: in vitro ADME; settings: substrate flavanone
T4 sequence (Q16696 1-494): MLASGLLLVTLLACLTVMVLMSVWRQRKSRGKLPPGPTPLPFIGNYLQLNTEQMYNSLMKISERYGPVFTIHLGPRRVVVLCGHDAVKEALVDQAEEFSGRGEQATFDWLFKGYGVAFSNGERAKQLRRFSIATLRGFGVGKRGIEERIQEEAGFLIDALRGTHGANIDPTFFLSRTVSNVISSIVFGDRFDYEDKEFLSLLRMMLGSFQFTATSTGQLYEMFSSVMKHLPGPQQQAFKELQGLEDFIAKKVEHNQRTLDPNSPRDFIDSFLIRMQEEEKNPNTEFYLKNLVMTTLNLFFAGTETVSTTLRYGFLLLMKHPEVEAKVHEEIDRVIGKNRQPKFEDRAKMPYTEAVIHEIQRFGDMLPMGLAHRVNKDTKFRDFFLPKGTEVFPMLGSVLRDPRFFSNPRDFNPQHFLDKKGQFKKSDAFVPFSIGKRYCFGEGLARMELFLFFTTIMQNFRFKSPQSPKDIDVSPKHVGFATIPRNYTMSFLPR

CYP1B1 = target: T5, CYP1B1 (Homo sapiens, UniProt Q16678); test: Oxidation by purified CYP1B1 in reconstituted monooxygenase system, LC-MS/MS; type: in vitro ADME; settings: substrate flavanone
T5 sequence (Q16678 1-543): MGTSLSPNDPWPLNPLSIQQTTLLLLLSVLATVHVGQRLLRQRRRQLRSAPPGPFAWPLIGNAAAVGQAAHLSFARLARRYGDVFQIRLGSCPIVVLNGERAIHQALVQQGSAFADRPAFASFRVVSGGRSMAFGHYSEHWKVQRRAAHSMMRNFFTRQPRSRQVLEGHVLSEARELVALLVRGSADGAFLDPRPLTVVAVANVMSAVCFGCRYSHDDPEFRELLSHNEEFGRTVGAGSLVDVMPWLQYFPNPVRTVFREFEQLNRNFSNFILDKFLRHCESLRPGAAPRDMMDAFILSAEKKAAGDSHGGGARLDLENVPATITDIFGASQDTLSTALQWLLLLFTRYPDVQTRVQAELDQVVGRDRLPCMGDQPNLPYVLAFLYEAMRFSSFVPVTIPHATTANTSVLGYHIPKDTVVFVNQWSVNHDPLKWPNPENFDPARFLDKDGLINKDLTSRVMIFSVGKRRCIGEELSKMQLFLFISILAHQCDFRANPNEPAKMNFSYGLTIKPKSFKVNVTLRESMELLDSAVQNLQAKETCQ

## O=C1CC(c2ccccc2)Oc2ccccc21 (stereo not drawn) [flavanone]
Rat liver microsomes
  Kinetic deuterium isotope effect for conversion of flavanone to flavone: 1.5
CYP1A1
  Formation of flavone and hydroxylated products: 2´-OHFva: 0.008 ± 0.004 nmol/min/nmol P450
  Formation of flavone and hydroxylated products: 3´-OHFva: 0.004 ± 0.002 nmol/min/nmol P450
  Formation of flavone and hydroxylated products: 4’´-OHFva: 0.074 ± 0.002 nmol/min/nmol P450
  Formation of flavone and hydroxylated products: 6OHF: 0.002 ± 0.001 nmol/min/nmol P450
  Formation of flavone and hydroxylated products: 6OHFva: 0.058 ± 0.008 nmol/min/nmol P450
  Formation of flavone and hydroxylated products: 7OHF: <0.001 nmol/min/nmol P450
  Formation of flavone and hydroxylated products: 7OHFva: 0.007 ± 0.003 nmol/min/nmol P450
  Formation of flavone and hydroxylated products: Flavone: 0.053 ± 0.003 nmol/min/nmol P450
CYP1A2
  Formation of flavone and hydroxylated products: 2´-OHFva: 0.074 ± 0.012 nmol/min/nmol P450
  Formation of flavone and hydroxylated products: 3´-OHFva: 0.117 ± 0.023 nmol/min/nmol P450
  Formation of flavone and hydroxylated products: 4’´-OHFva: 0.33 ± 0.05 nmol/min/nmol P450
  Formation of flavone and hydroxylated products: 6OHF: <0.001 nmol/min/nmol P450
  Formation of flavone and hydroxylated products: 6OHFva: 0.19 ± 0.02 nmol/min/nmol P450
  Formation of flavone and hydroxylated products: 7OHF: 0.002 ± 0.002 nmol/min/nmol P450
  Formation of flavone and hydroxylated products: 7OHFva: 0.009 ± 0.001 nmol/min/nmol P450
  Formation of flavone and hydroxylated products: Flavone: 0.008 ± 0.001 nmol/min/nmol P450
CYP2A6; CYP2A6
  Formation of flavone and hydroxylated products: 2´-OHFva: 4.76 ± 0.32 nmol/min/nmol P450
  Formation of flavone and hydroxylated products: 3´-OHFva: 0.031 ± 0.003 nmol/min/nmol P450
  Formation of flavone and hydroxylated products: 4’´-OHFva: 0.20 ± 0.01 nmol/min/nmol P450
  Formation of flavone and hydroxylated products: 6OHF: 0.003 ± 0.001 nmol/min/nmol P450
  Formation of flavone and hydroxylated products: 6OHFva: 1.29 ± 0.08 nmol/min/nmol P450
  Formation of flavone and hydroxylated products: 7OHF: <0.001 nmol/min/nmol P450
  Formation of flavone and hydroxylated products: 7OHFva: <0.001 nmol/min/nmol P450
  Formation of flavone and hydroxylated products: Flavone: 0.72 ± 0.06 nmol/min/nmol P450
  Turnover number of 2´OHFva formation: 4.8 nmol/min/nmol CYP2A6
  Turnover number of 6OHFva formation: 1.3 nmol/min/nmol CYP2A6
  Turnover number of flavone formation: 0.72 nmol/min/nmol CYP2A6
  Turnover rate of 2´-hydroxyflavanone formation: 4.8 min⁻¹ and 4.76 min⁻¹
  Turnover rate of 6-hydroxyflavanone formation: 1.3 min⁻¹ and 1.29 min⁻¹
  Turnover rate of flavone formation: 0.72 min⁻¹
CYP2A6; CYP2A6 higher than CYP2A13
  Flavone formation turnover rate by CYP2A6 relative to CYP2A13: ~ 3 fold
CYP2C9
  Formation of flavone and hydroxylated products: 2´-OHFva: 0.012 ± 0.001 nmol/min/nmol P450
  Formation of flavone and hydroxylated products: 3´-OHFva: 0.003± 0.001 nmol/min/nmol P450
  Formation of flavone and hydroxylated products: 4’´-OHFva: 0.040± 0.001 nmol/min/nmol P450
  Formation of flavone and hydroxylated products: 6OHF: <0.001 nmol/min/nmol P450
  Formation of flavone and hydroxylated products: 6OHFva: 0.091± 0.001 nmol/min/nmol P450
  Formation of flavone and hydroxylated products: 7OHF: <0.001 nmol/min/nmol P450
  Formation of flavone and hydroxylated products: 7OHFva: <0.001 nmol/min/nmol P450
  Formation of flavone and hydroxylated products: Flavone: 0.009 ± 0.002 nmol/min/nmol P450
CYP3A4
  Formation of flavone and hydroxylated products: 2´-OHFva: <0.001 nmol/min/nmol P450
  Formation of flavone and hydroxylated products: 3´-OHFva: <0.001 nmol/min/nmol P450
  Formation of flavone and hydroxylated products: 4’´-OHFva: <0.001 nmol/min/nmol P450
  Formation of flavone and hydroxylated products: 6OHF: <0.001 nmol/min/nmol P450
  Formation of flavone and hydroxylated products: 6OHFva: <0.001 nmol/min/nmol P450
  Formation of flavone and hydroxylated products: 7OHF: <0.001 nmol/min/nmol P450
  Formation of flavone and hydroxylated products: 7OHFva: <0.001 nmol/min/nmol P450
  Formation of flavone and hydroxylated products: Flavone: 0.057 ± 0.011 nmol/min/nmol P450
wild-type CYP2A6
  Turnover number of formation of 2´-hydroxyflavanone: 0.32 min⁻¹
CYP2A13
  Formation of flavone and hydroxylated products: 2´-OHFva: 0.027 ± 0.002 nmol/min/nmol P450
  Formation of flavone and hydroxylated products: 3´-OHFva: 0.011 ± 0.004 nmol/min/nmol P450
  Formation of flavone and hydroxylated products: 4’´-OHFva: 0.013 ± 0.001 nmol/min/nmol P450
  Formation of flavone and hydroxylated products: 6OHF: 0.004 ± 0.001 nmol/min/nmol P450
  Formation of flavone and hydroxylated products: 6OHFva: 0.17 ± 0.01 nmol/min/nmol P450
  Formation of flavone and hydroxylated products: 7OHF: <0.001 nmol/min/nmol P450
  Formation of flavone and hydroxylated products: 7OHFva: 0.005 ± 0.001 nmol/min/nmol P450
  Formation of flavone and hydroxylated products: Flavone: 0.29 ± 0.02 nmol/min/nmol P450
  Turnover rate of flavone formation: 0.29 min⁻¹
CYP1B1
  Formation of flavone and hydroxylated products: 2´-OHFva: 0.046 ± 0.009 nmol/min/nmol P450
  Formation of flavone and hydroxylated products: 3´-OHFva: 0.013 ± 0.002 nmol/min/nmol P450
  Formation of flavone and hydroxylated products: 4’´-OHFva: 0.19 ± 0.04 nmol/min/nmol P450
  Formation of flavone and hydroxylated products: 6OHF: 0.002 ± 0.001 nmol/min/nmol P450
  Formation of flavone and hydroxylated products: 6OHFva: 0.33 ± 0.05 nmol/min/nmol P450
  Formation of flavone and hydroxylated products: 7OHF: <0.001 nmol/min/nmol P450
  Formation of flavone and hydroxylated products: 7OHFva: 0.003 ± 0.001 nmol/min/nmol P450
  Formation of flavone and hydroxylated products: Flavone: 0.046 ± 0.002 nmol/min/nmol P450
